What was measured:
Tg2576 mice [1] = test: Amorfix A4 assay of aggregated Aβ in Tg2576 mouse brain; assay type: in vivo; conditions: 50 weeks
Procedure: (§1) Male Tg2576 and WT mice were both derived from crosses of male Tg2576 mice and female B6SJLF1 mice (Taconic) and were singly housed upon arrival. […] Some animals were euthanized as described above. For histological studies, a subset of mice were euthanized by CO2 asphyxiation and transcardially perfused with cold 0.9% NaCl. The right hemispheres were immersion fixed in fresh 4% paraformaldehyde in 0.1 M phosphate buffer, pH 7.4 for 1 h, transferred to a 15% sucrose cryoprotectant for 24 h at room temperature, and on the next day, frozen in isopentane chilled by dry ice for 1 min. The left cerebral hemisphere was cut into 2 pieces, weighed, and frozen.
The A4 assay (Amorfix Life Sciences, Toronto, Canada) was employed to quantify levels of aggregated Aβ in Tg2576 mouse brains. […] Aβ was detected by immunoassay following incubation at 37°C with europium-fluorescent beads coupled to the mouse monoclonal 4G10 antibody (N-terminal Aβ, aa 1–17) and magnetic beads coupled to the antibodies 1F8 (C-terminal Aβ, aa 3–40) and 2H12 (C-terminal Aβ, aa 3–42). […] The intensity of the europium fluorescent signal was measured using time resolved fluorescence on each sample in triplicate and was taken as being directly proportional to the concentration of aggregated Aβ in the sample. […]

Tg2576 mice [2] = test: Tolerability in chronic treatment study (body weight, organs, survival); assay type: in vivo, mouse
Procedure: as §1

In the case of `O=C(O)[C@H](CC1CCC1)c1cc(Cl)c(OCC(F)(F)F)c(-c2ccc(C(F)(F)F)cc2)c1` [EVP-0015962, (R)-2-(5-chloro-6-(2,2,2-trifluoroethoxy)-4’-(trifluoromethyl)biphenyl-3-yl)-3-cyclobutylpropanoic acid], the “reduction in aggregated Aβ” value (Tg2576 mice [1]; 20 mg/kg/day) is reported as 19%, the “reduction in aggregated Aβ compared to the control diet group” value (Tg2576 mice [1]; 60 mg/kg/day) is reported as 73% and the “mortality (percent of group lost)” value (Tg2576 mice [2]; Tg2576 mice, 60 mg/kg/day, 50 weeks) is reported as 25%. The “body weight among the treatment groups” value (Tg2576 mice [2]; Tg2576 mice, 20 or 60 mg/kg/day, 50 weeks) was “no significant differences” and the “effects on intestinal goblet cells or any other organ system examined” value (Tg2576 mice [2]; satellite animals, up to 60 mg/kg/day, 11 weeks) was “no evidence of effects”.
